Laboratory results published in US4550186A, “Binuclear copper (II) carboxylates formed from amine-carboxyboranes” (Duke University, priority 1983, dated 1985).

Tests used:
[1] = doses of 150-200 mg/kg; cited from earlier work
[2] = system: Ehrlich ascites carcinoma; assay: Ehrlich ascites carcinoma growth in CF1 male mice; format: in vivo, mouse
Procedure: CF1 male mice (~30 g) were implanted with 2×10^6 Ehrlich ascites tumor cells, intraperitoneally on Day 0. Compound I was suspended by homogenation in 0.05% polysorbate.80-water and administered intraperitoneally at 10 and 20 mg/kg for 9 days to determine its effectiveness for inhibition of tumor growth. Mice were sacrificed on Day 10, and the ascites fluid was collected from the peritoneal cavity. The volume and ascrit (packed cell volume) were determined for each animal and the percent inhibition of tumor growth was calculated. For the metabolic studies, mice were treated on Days 8 and 9 with 10 mg/kg of Compound I, intraperitoneally. The animal was sacrificed on Day 10 and the ascites fluid harvested. The in vitro metabolic studies were performed at […] final concentration of Compound I.

Compound | lowers serum cholesterol [1] | lowers serum triglyceride levels [1] [%] | Ascrit Packed Cell Vol. ([2]; Standard, dose not given) | Percent Inhibition ([2]; Standard, dose not given) [%] | Vol(ml) Ascites Fluid ([2]; Standard, dose not given) [mL] | No. of Animals Survived on Day 10 ([2]; mouse, in vivo)
CCOC(=O)C(C)(C)Oc1ccc(Cl)cc1 [clofibrate] | 6-15% | 25 |  |  |  | 
Sc1ncnc2nc[nH]c12 [6-mercaptopurine, reference compound] |  |  | 2.5 | 99.9 | 0.10 | 6
